Test results from paper PMC5650142, “GPR40 partial agonists and AgoPAMs: Differentiating effects on glucose and hormonal secretions in the rodent” (PLoS ONE, 2017).
Several values for one entry are separate records, joined by “and”; a condition that tells them apart may be missing. Equal entries are not always repeated.

Legend:
[1] = system: GK rats; assay: GK rat chronic efficacy (28 days: glucose, food intake, body weight, GLP-1, GIP, PYY, insulin, glucagon); type: in vivo; conditions: 30 mpk; for Fasted glucose on day 28 (Fig 3B): day 28, fasted, individual animals
Protocol: At the start of the study, fed (ambient) blood glucose was measured via glucometer at 1 h post lights on, and animals were selected and sorted into treatment groups based on ambient glucose (n = 10/ GK group, n = 6 WKY control). Blood for baseline incretin measurements was collected in the PM via tail vein. Rats were dosed via oral gavage (PO) at a volume of 5 ml/kg daily at approximately 12:30 PM with either vehicle (0.5% methylcellulose), AP1 at 30 mg/kg, or AP3 at 30 mg/kg. MK-8666, a GPR40 partial agonist synthesized at Merck & Co., Inc., Kenilworth, NJ USA [13], at 30 mg/kg was administered in feed (Research Diets, New Brunswick, NJ) and provided ad lib. All compounds were administered to achieve maximal efficacious exposures determined in acute efficacy studies similar to those acute studies described above. In brief, partial agonists and AgoPAMs were titrated in the acute GK rat experiment described above and the exposure associated with maximal efficacy in glucose lowering was noted. Partial agonists and AgoPAMs were then dosed to maintain those exposures up to 24h post dose. […] Rats from this group and the WKY controls were administered vehicle PO when the vehicle, AP1, and AP3 groups were treated. Fed blood glucose, food intake, and body weights were determined on days 10, 17, 23, and 28 of study at 2 h post lights on. Immediately after these measures were taken on days 10, 17, 23, and 28, food was removed. After 5h of fasting, animals were dosed with vehicle or compound and allowed to rest for an additional hour. Glucose, GLP-1, GIP, and PYY were measured after 6h of fasting at 1 hr post dose. Fed blood glucose is described by animals having had ad libidum access to feed up till the time of sampling and occurred at 2h post-lights on where rats were nearing the end of their nocturnal feeding cycle. Fasted blood glucose is described by blood glucose sampled after 6h of fasting where food was removed at 2h post lights on. Please note that the fasted sample was taken 1h post oral dosing. On day 10, blood was collected from the tail vein (20 μl) after morning glucose measures and after 6 hour fast from a subset of n = 3 rats per treatment group to determine the fed and fasted exposure of the compounds in circulation. The blood was stored at 4°C in 0.1 M sodium citrate for subsequent analysis of drug exposure.
Blood for insulin, glucagon, GLP-1, GIP, and PYY measurements was collected into K2EDTA Microtainer tubes (BD, Franklin Lakes, NJ) pre-treated with DPP4 inhibitor (Millipore, Billerica, MA) and cOmplete™ Protease Inhibitor Cocktail Tablets (Roche Diagnostics, Indianapolis, IN). Tubes were centrifuged for 10 minutes at 5000 RPM, and plasma was aliquotted for analysis. Plasma insulin levels were measured via EIA (Mesoscale Discovery ELISA Kit, Gaithersburg MD). Rat plasma total GLP-1 was measured using Total GLP-1 (ver.2) Assay Kit (Cat#: K150JVC). The measurement of active GLP-1 was carried out in a similar manner as that described for total GLP-1 assay with the exception that MSD Active GLP-1 (ver. 2) assay kit (Cat# K150JWC) was used. Rat plasma glucagon was measured using an in-house glucagon assay developed as a MSD format sandwich immunoassay (Merck & Co., Inc., MRL, Kenilworth, NJ USA). The antibody specificity was cross validated via mass- spec using procedures described in Lee et al. Briefly, MSD Streptavidin Gold plates were coated with 2 μg/ml biotin mouse monoclonal antibody generated to glucagon. Test samples were added to the plates and a separate Sulfo- tagged monoclonal antibody was used to detect the captured glucagon protein (2 μg/ml). The ELISA was carried out in the standard reagents in the MSD format. The plate was read on the SECTOR Imager 6000 Reader. Metabolic hormones GIP (Gastric Inhibitory Polypeptide) and PYY (Peptide YY) were measured in rat plasma using the Rat Metabolic Magnetic Bead Panel (EMD Millipore, Billerica, MA). The assay was performed according to manufacturer protocol. […]

[2] = system: GK rats; assay: Endogenous glucose production in vivo (2H/13C dual tracer); design: species or system rat; conditions: GK rats, 30 mpk, individual animal values (data for Fig 8); 30 mg/kg;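 on Glucose production, EGP Total: micromoles per kg body weight per minute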;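 on Glucose production, Glycerol: absolute flux in micromoles per kg per minute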;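 on Glucose production, Glycogen: absolute flux in micromoles per kg per minute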;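 on Glucose production, TCA: absolute flux in micromoles per kg per minute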
Protocol: To evaluate the effects of the GPR40 partial and AgoPAM compounds on EGP in vivo, a 2H/13C dual tracer approach was used to calculate EGP and its contributing sources. Following the chronic treatments described above, 0.9% NaCl salinated deuterium oxide (D2O, Sigma-Aldrich, St. Louis, MO) was administered to all animals via intraperitoneal (IP) injection at dose volume of 20 ml/kg at 1 hr post lights on. Animals were then placed in clean cages and food was removed. After a 5 hour fast, blood glucose was measured and animals were dosed with 50 mg/kg [U-13C] glucose (Sigma-Aldrich, St. Louis, MO) IP at 5 ml/kg. Blood was collected via tail snip at time points from 60–150 min post treatment to measure blood glucose (via glucometer) as well as endogenous (12C-glucose) and exogenous (13C-glucose) via GCMS. Following the last tail blood collection, rats were anesthetized with isoflurane and cardiac blood was collected into K2EDTA tubes (Becton, Dickinson and Co., Franklin Lakes, NJ).
The serially collected blood samples were analyzed for 13C-glucose enrichment using GC-MS analysis. The % 13C glucose enrichments were then combined with the total glucose readings to calculate the concentration of 13C-glucose, and these values were modeled with a two-compartment model of whole body glucose metabolism to calculate the average EGP for the period from 0–150 minutes.
Terminal blood samples were analyzed for relative 2H enrichment in plasma glucose using the monoacetone glucose method. Briefly, samples were extracted with 70% perchloric acid at a ratio of 50 μl perchloric acid per 1 ml plasma and centrifuged at 25,000 rcf for 10 min at 4°C. The supernatant was collected and the pH was adjusted to 6–8 using aqueous KOH. The samples were then lyophilized overnight. To convert plasma glucose to monoacetone glucose (MAG), acetone and concentrated sulfuric acid were added to the lyophilized samples and stirred for 4 hours at room temperature. Water was then added and the pH adjusted to 2.0 with 3M Na2CO3. Samples were stirred moderately for 18 hours at room temperature, the pH was adjusted to 7 with 3M Na2CO3, and the samples were completely dried by speed vacuum concentration. The resulting MAG samples were then extracted in hot ethyl acetate, dried overnight under a stream of N2 gas, and purified using Discovery DSC-18 SPE columns (6 ml, 1 g bed weight). For the SPE protocol, MAG samples were reconstituted in 3 ml water and passed over the columns which were pre-washed with 2 ml methanol. The columns were rinsed twice with 1 ml water and the MAG was eluted with 5% acetonitrile. The acetonitrile eluent was then transferred to a glass scintillation vial and freeze dried. Purified MAG samples were solubilized in 180 μl 90% acetonitrile for 2H NMR analysis which was performed using the lock channel of a 950 MHz Bruker NMR spectrometer (David H Murdock Research Institute, DHMRI Kannapolis, NC). Acquisition parameters were as follows: 90° pulse, D1 = 1 s, 1H broadband decoupling, NS = 3600, acquisition time ~ 1 hr. The 2H NMR spectra of the MAG samples were then analyzed using Matlab (The Mathworks Inc, Natick, MA) to model the NMR peaks with a Lorentzian lineshape, and the results were used to calculate integrals for each of the seven NMR resonances in the MAG spectrum. Peaks 2, 5, and 6s were then used to calculate the relative sources of EGP (i.e. gluconeogenesis from TCA cycle substrates, glucose production from triose phosphates, and glycogenolysis) and these values were combined with the total EGP measurement to calculate absolute fluxes of glucose production.

Compound	Glucose Over time (S2 File, Fig 2A) ([1]; Day 0, individual animals)	Glucose Over time (S2 File, Fig 2A) ([1]; Day 10, individual animals)	Glucose Over time (S2 File, Fig 2A) ([1]; Day 17, individual animals)	Glucose Over time (S2 File, Fig 2A) ([1]; Day 23, individual animals)	Glucose Over time (S2 File, Fig 2A) ([1]; Day 28, individual animals)	Fasted glucose on day 28 (Fig 3B) [1]	Glucose production, EGP Total [2]	Glucose production, Glycerol [2]	Glucose production, Glycogen [2]	Glucose production, TCA [2]
C[C@H](C(=O)O)[C@H](c1ccc2c(c1)O[C@H](C1CN(Cc3cc(C(F)(F)F)ccc3C(F)(F)F)C1)CC2)C1CC1 [L-846]	162 mg/dL and 164 mg/dL and 165 mg/dL and 161 mg/dL and 182 mg/dL and 169 mg/dL and 204 mg/dL and 174 mg/dL and 186 mg/dL and 171 mg/dL	98 mg/dl and 122 mg/dl and 115 mg/dl and 114 mg/dl and 99 mg/dl (2×) and 103 mg/dl and 104 mg/dl and 100 mg/dl and 85 mg/dl	78 mg/dl and 96 mg/dl and 115 mg/dl and 110 mg/dl (2×) and 103 mg/dl and 108 mg/dl and 107 mg/dl and 101 mg/dl and 109 mg/dl	101 mg/dL and 120 mg/dL and 118 mg/dL and 110 mg/dL and 107 mg/dL and 103 mg/dL and 114 mg/dL and 129 mg/dL and 102 mg/dL and 106 mg/dL	112 mg/dl and 106 mg/dl and 113 mg/dl (3×) and 116 mg/dl and 101 mg/dl and 141 mg/dl and 132 mg/dl and 119 mg/dl	104 and 110 and 84 and 100 and 96 and 87 and 101 and 99 and 103	61.0286 µmol/kg/min and 62.3968 µmol/kg/min and 60.5987 µmol/kg/min and 63.0498 µmol/kg/min and 58.2916 µmol/kg/min and 53.1262 µmol/kg/min and 50.1943 µmol/kg/min and 59.3349 µmol/kg/min	5.2866 µmol/kg/min and 7.6637 µmol/kg/min and 4.613 µmol/kg/min and 10.7135 µmol/kg/min and 9.19 µmol/kg/min and 7.224 µmol/kg/min and 6.179 µmol/kg/min and 7.862 µmol/kg/min	22.4627 µmol/kg/min and 29.4039 µmol/kg/min and 20.4093 µmol/kg/min and 17.187 µmol/kg/min and 19.1242 µmol/kg/min and 17.4656 µmol/kg/min and 16.9199 µmol/kg/min and 18.0022 µmol/kg/min	33.2793 µmol/kg/min and 25.3292 µmol/kg/min and 35.5765 µmol/kg/min and 35.1493 µmol/kg/min and 29.9769 µmol/kg/min and 28.4363 µmol/kg/min and 27.0955 µmol/kg/min and 33.4708 µmol/kg/min
COc1ccc(F)c(-c2ccc([C@@H]3CCc4ccc([C@H](C5CC5)[C@H](C)C(=O)O)cc4O3)cc2)c1 [L-254]	162 mg/dL and 163 mg/dL and 174 mg/dL and 167 mg/dL and 198 mg/dL and 181 mg/dL and 193 mg/dL and 168 mg/dL and 160 mg/dL and 171 mg/dL	111 mg/dl and 110 mg/dl (2×) and 123 mg/dl and 100 mg/dl and 101 mg/dl and 106 mg/dl and 92 mg/dl and 99 mg/dl and 95 mg/dl	110 mg/dl and 118 mg/dl and 103 mg/dl (2×) and 138 mg/dl and 137 mg/dl and 96 mg/dl and 95 mg/dl and 124 mg/dl and 108 mg/dl	115 mg/dl and 109 mg/dl and 125 mg/dl and 106 mg/dl and 126 mg/dl (2×) and 127 mg/dl and 107 mg/dl and 117 mg/dl and 130 mg/dl	114 mg/dl and 98 mg/dl and 108 mg/dl and 105 mg/dl and 131 mg/dl and 113 mg/dl (2×) and 126 mg/dl and 121 mg/dl and 107 mg/dl	104 and 87 and 118 and 99 and 111 and 114 and 95 and 92	61.3579 µmol/kg/min and 60.2311 µmol/kg/min and 73.9647 µmol/kg/min and 47.8618 µmol/kg/min and 64.0721 µmol/kg/min and 48.3077 µmol/kg/min and 46.8784 µmol/kg/min and 45.4367 µmol/kg/min and 55.8377 µmol/kg/min	10.657 µmol/kg/min and 6.4047 µmol/kg/min and 5.755 µmol/kg/min and 5.519 µmol/kg/min and 3.299 µmol/kg/min and 5.985 µmol/kg/min and 2.316 µmol/kg/min	22.6257 µmol/kg/min and 22.3444 µmol/kg/min and 14.5988 µmol/kg/min and 19.8177 µmol/kg/min and 18.6577 µmol/kg/min and 12.2721 µmol/kg/min and 17.7499 µmol/kg/min	26.9483 µmol/kg/min and 45.2155 µmol/kg/min and 27.5078 µmol/kg/min and 38.7357 µmol/kg/min and 26.3505 µmol/kg/min and 28.6217 µmol/kg/min and 25.3709 µmol/kg/min
